Results taken from patent publication US20250241890A1, “1,4-DIUREAS AND 1,4-DITHIOUREAS AND USES THEREOF” (Purdue Research Foundation, priority 2024, published 2025).
“Also recorded” adds a separate entry of the source.

target: T1, α-synuclein (α-syn) (Homo sapiens, UniProt P37840); assay: Thioflavin T (ThT) fluorescence assay of α-syn fibril formation; assay type: biochemical; conditions: α-syn 2 μM final concentration, compounds at 100 μM, average of three replicates with SEM
T1 construct: purchased rPeptide (Watkinsville, GA)
Method: Chemical and peptide source. Dimethylsulfoxide (DMSO) and thioflavin-T (ThT) were purchased from Alfa Aesar (Ward Hill, MA). Recombinant α-synuclein (α-syn) was procured from rPeptide (WatKinsville, GA). The recombinant p-tau isoform 1N4R was prepared as published previously (Fortin et al. 2021, Sui et al. 2015, Liu et al. 2020). Concerning the preparation of tau 0N4R, a bacterial expression plasmid consisting of the vector pET30a carrying a cDNA encoding the human Tau 0N4R isoform was a kind gift of Dr. Benjamin Wolozin (Boston University). E. coli stock (Rosetta BL21 E. coli (CamR) containing pET30a [0N4R tau wt] (KanR)) was grown in LB medium supplemented with kanamycin (50 μg/mL) and chloramphenicol (50 μg/mL). Protein over-expression was induced by the addition of 1 mM IPTG for ˜18 hours at 37° C., and cells were pelleted by centrifugation at 6,000 g for 15 minutes at 4° C. The cells were resuspended in lysis buffer (10 mM Hepes, pH 7.4, 50 mM NaCl, 1 mM MgCl2, 1 mM PMSF, 1× PIC, and 0.5 mM DTT) and lysed by sonication at 30 seconds “On” and 1 minute “Off” at ˜30-45% power for ˜3-5 minutes. Lysate was centrifuged at 10,000 rpm for 10 minutes at 4° C., and supernatant was transferred with 7.8 ml (total) of 3M NaCl. The lysate was incubated for 10 minutes in 80° C. water bath, then cooled for 10 minutes in an ice bath. The lysate was centrifuged at 10,000 rpm at 4° C. for 10 minutes, and the supernatant was transferred to a new tube. The supernatant was dialyzed overnight against cation exchange buffer (50 mM MES, […], 1 mM DTT, pH 6.0). The dialysate was loaded onto a HiPrep SP HP column, and proteins were eluted with a linear gradient ranging from 50 mM to 1 M NaCl. General Characterizations. ^1H and ^13C {1H} NMR spectra were recorded using a 500 MHz Bruker instrument working at a frequency of 500 MHz for ^1H and at 126 MHz for ^13C. Chemical shifts are reported in ppm using residual solvent resonances as internal reference (δ 2.50 and δ 39.51 for ^1H and ^13C in DMSO-d6, respectively). ^1H NMR data are reported as follows. b=broad, s=singlet, d=doublet, t=triplet, q=quartet, and m=multiplet. Coupling constants are given in hertz. The purity of all compounds and synthetic intermediates was judged to be 95% or better based on ^1H NMR. IR measurements were performed in a Nicolet FTIR as thin films in the Purdue Drug Discovery facility. High-resolution mass spectrometry analyses were conducted at the MSU Mass Spectrometry facility. Thioflavin fluorescence assays. […] The recombinant α-syn obtained from rPeptide has been validated with proper quality control to confirm the monomeric state of the protein. Kinetics of fibril formation have been performed using ThT as published previously.^6, 12, 13, 24 The fluorescence emission experiments were performed with the excitation and emission wavelengths set at 440 and 485 nm, respectively, with a Synergy HT multi-mode microplate reader (BioTek, Winooski, VT). Samples were measured in three replicates. Experiments were repeated three times using different α-syn stock solutions. For each time point, arbitrary units of fluorescence were calculated from the mean values normalized against the maximum value. The percentage of fluorescence intensity at the plateau phase in Table 1 was expressed as mean #SEM. Concerning the dose response curve depicted in FIG. 2, the data were plotted using GraphPad Prism. Photo-induced Cross-linking of Unmodified Proteins (PICUP) Assay. To induce oligomerization by cross-linking, α-syn (from Rpeptide, LLC) was diluted in 10 mM phosphate buffer (pH 7.4) to reach a final concentration of 50 μM. Different compounds were added to the protein solution at a final concentration of 50 μM, resulting in a molar ratio of 1:1. PICUP assays were performed with the following controls: samples without light exposition, without Ru(bpy) or ammonium persulfate, and without compound (i.e., 0.125% DMSO). […]

Row | % ThT intensity (100 μM), maximum ThT intensity in percentage | Compound
1 | 19 41.6 ± 3.6% | 1,1′-(1,4-phenylene)bis(3-(pyridin-4-yl)urea) [Compound 19]
2 | 20 85% ± <15 | 1,1′-(1,4-phenylene)bis(3-cyclohexylthiourea) [Compound 20]

same assay, conditions: α-syn 2 μM final concentration, compounds at 100 μM, average of three replicates with SEM; read-out: % ThT intensity (100 μM), maximum ThT intensity in percentage

Row | remaining activity at 100 µM [%] | Compound
3 | 91.6 | O=C(Nc1cccc2[nH]ccc12)N[C@H]1CC[C@H](NC(=O)Nc2cccc3[nH]ccc23)CC1 [Compound 21, 1,1′-((1R,4R)-cyclohexane-1,4-diyl)bis(3-(1H-indol-4-yl)urea)]
4 | 93.5 | Cc1c(NC(=O)Nc2ccc(N3CCOCC3)cc2)cccc1NC(=O)Nc1ccc(N2CCOCC2)cc1 [Compound 22, 1,1′-(2-methyl-1,3-phenylene)bis(3-(4-morpholinophenyl)urea)]

The next lines start with the compound.

Row | Compound | remaining activity at 100 µM [%]
5 | S=C(Nc1ccccc1)Nc1ccc(NC(=S)Nc2ccccc2)cc1 [Compound 10, 1-phenyl-3-{4-[(phenylcarbamothioyl)amino]phenyl}thiourea] | 94
6 | S=C(Nc1ccc(NC(=S)Nc2ccc3cc[nH]c3c2)cc1)Nc1ccc2cc[nH]c2c1 [Compound 6, 3-(1H-indol-6-yl)-1-(4-{[(1H-indol-6-yl)carbamothioyl]amino}phenyl)thiourea] | 36.1
7 | O=C(Nc1ccccc1)Nc1ccc(NC(=O)Nc2ccccc2)cc1 [Compound 9, 1-phenyl-3-{4-[(phenylcarbamoyl)amino]phenyl}urea] | 93.5

same assay, conditions: α-syn 6 μM final concentration, compounds at 100 μM, average of three replicates

Row | maximum thioflavin T (ThT) intensity in percentage | Compound
8 | Compound 15 28.1 ± 2.1% | O=C(Nc1cccc(NC(=O)Nc2cccc3[nH]ccc23)c1)Nc1cccc2[nH]ccc12 [Compound 15, 3-(1H-indol-4-yl)-1-(3-{[(1H-indol-4-yl)carbamoyl]amino}phenyl)urea]
9 | Compound 17 116.4 ± 8.8% | Cc1c(NC(=O)Nc2ccc3[nH]ccc3c2)cccc1NC(=O)Nc1ccc2[nH]ccc2c1 [Compound 17, 3-(1H-indol-5-yl)-1-(3-{[(1H-indol-5-yl)carbamoyl]amino}-2-methylphenyl)urea]
10 | Compound 11 108.6 ± 4.7% | O=C(Nc1ccccc1)Nc1cccc(NC(=O)Nc2ccccc2)c1 [Compound 11, 3-phenyl-1-{3-[(phenylcarbamoyl)amino]phenyl}urea]
11 | Compound 14 12.4 ± 1.8% | O=C(Nc1cccc(NC(=O)Nc2ccc3cc[nH]c3c2)c1)Nc1ccc2cc[nH]c2c1 [Compound 14, 3-(1H-indol-6-yl)-1-(3-{[(1H-indol-6-yl)carbamoyl]amino}phenyl)urea]
12 | Compound 18 49.7 ± 5.0% | Cc1c(NC(=O)Nc2ccc3cc[nH]c3c2)cccc1NC(=O)Nc1ccc2cc[nH]c2c1 [Compound 18, 3-(1H-indol-6-yl)-1-(3-{[(1H-indol-6-yl)carbamoyl]amino}-2-methylphenyl)urea]
13 | Compound 16 23.4 ± 0.2% | Cc1c(NC(=O)Nc2cccc3[nH]ccc23)cccc1NC(=O)Nc1cccc2[nH]ccc12 [Compound 16, 3-(1H-indol-4-yl)-1-(3-{[(1H-indol-4-yl)carbamoyl]amino}-2-methylphenyl)urea]
14 | Compound 12 8.8 ± 0.2% | O=C(Nc1cccc(NC(=O)Nc2cccc3[nH]ccc23)c1)Nc1cccc2[nH]ccc12 [Compound 12, 3-(1H-indol-4-yl)-1-(3-{[(1H-indol-4-yl)carbamoyl]amino}phenyl)urea]
15 | Compound 13 27.7 ± 2.9% | O=C(Nc1cccc(NC(=O)Nc2ccc3[nH]ccc3c2)c1)Nc1ccc2[nH]ccc2c1 [Compound 13, 3-(1H-indol-5-yl)-1-(3-{[(1H-indol-5-yl)carbamoyl]amino}phenyl)urea]

target: T1, α-synuclein (α-syn); assay: PICUP assay of α-syn oligomer formation; assay type: biochemical; conditions: α-syn 60 μM, compound 50 μM (~molar ratio 1:1)
Method: Chemical and peptide source. Dimethylsulfoxide (DMSO) and thioflavin-T (ThT) were purchased from Alfa Aesar (Ward Hill, MA). Recombinant α-synuclein (α-syn) was procured from rPeptide (WatKinsville, GA). The recombinant p-tau isoform 1N4R was prepared as published previously (Fortin et al. 2021, Sui et al. 2015, Liu et al. 2020). Concerning the preparation of tau 0N4R, a bacterial expression plasmid consisting of the vector pET30a carrying a cDNA encoding the human Tau 0N4R isoform was a kind gift of Dr. Benjamin Wolozin (Boston University). E. coli stock (Rosetta BL21 E. coli (CamR) containing pET30a [0N4R tau wt] (KanR)) was grown in LB medium supplemented with kanamycin (50 μg/mL) and chloramphenicol (50 μg/mL). Protein over-expression was induced by the addition of 1 mM IPTG for ˜18 hours at 37° C., and cells were pelleted by centrifugation at 6,000 g for 15 minutes at 4° C. The cells were resuspended in lysis buffer (10 mM Hepes, pH 7.4, 50 mM NaCl, 1 mM MgCl2, 1 mM PMSF, 1× PIC, and 0.5 mM DTT) and lysed by sonication at 30 seconds “On” and 1 minute “Off” at ˜30-45% power for ˜3-5 minutes. Lysate was centrifuged at 10,000 rpm for 10 minutes at 4° C., and supernatant was transferred with 7.8 ml (total) of 3M NaCl. The lysate was incubated for 10 minutes in 80° C. water bath, then cooled for 10 minutes in an ice bath. The lysate was centrifuged at 10,000 rpm at 4° C. for 10 minutes, and the supernatant was transferred to a new tube. The supernatant was dialyzed overnight against cation exchange buffer (50 mM MES, […], 1 mM DTT, pH 6.0). The dialysate was loaded onto a HiPrep SP HP column, and proteins were eluted with a linear gradient ranging from 50 mM to 1 M NaCl. General Characterizations. ^1H and ^13C {1H} NMR spectra were recorded using a 500 MHz Bruker instrument working at a frequency of 500 MHz for ^1H and at 126 MHz for ^13C. Chemical shifts are reported in ppm using residual solvent resonances as internal reference (δ 2.50 and δ 39.51 for ^1H and ^13C in DMSO-d6, respectively). ^1H NMR data are reported as follows. b=broad, s=singlet, d=doublet, t=triplet, q=quartet, and m=multiplet. Coupling constants are given in hertz. The purity of all compounds and synthetic intermediates was judged to be 95% or better based on ^1H NMR. IR measurements were performed in a Nicolet FTIR as thin films in the Purdue Drug Discovery facility. High-resolution mass spectrometry analyses were conducted at the MSU Mass Spectrometry facility. Thioflavin fluorescence assays. Thioflavin fluorescence assays were used to monitor fibril formation of commercial recombinant α-syn at a final concentration of 2 μM and treated with control DMSO and different compounds. The recombinant α-syn obtained from rPeptide has been validated with proper quality control to confirm the monomeric state of the protein. Kinetics of fibril formation have been performed using ThT as published previously.^6, 12, 13, 24 The fluorescence emission experiments were performed with the excitation and emission wavelengths set at 440 and 485 nm, respectively, with a Synergy HT multi-mode microplate reader (BioTek, Winooski, VT). Samples were measured in three replicates. Experiments were repeated three times using different α-syn stock solutions. For each time point, arbitrary units of fluorescence were calculated from the mean values normalized against the maximum value. The percentage of fluorescence intensity at the plateau phase in Table 1 was expressed as mean #SEM. Concerning the dose response curve depicted in FIG. 2, the data were plotted using GraphPad Prism. Photo-induced Cross-linking of Unmodified Proteins (PICUP) Assay. […] Different compounds were added to the protein solution at a final concentration of 50 μM, resulting in a molar ratio of 1:1. PICUP assays were performed with the following controls: samples without light exposition, without Ru(bpy) or ammonium persulfate, and without compound (i.e., 0.125% DMSO). […]

Row | Compound | effect on α-syn oligomer formation (high molecular weight bands) by PICUP
16 | Nc1ccc2[nH]ccc2c1 [5-aminoindole, reference compound] | abrogated the formation of high molecular weight bands
17 | S=C(Nc1ccc(NC(=S)Nc2ccc3cc[nH]c3c2)cc1)Nc1ccc2cc[nH]c2c1 [Compound 6, 3-(1H-indol-6-yl)-1-(4-{[(1H-indol-6-yl)carbamothioyl]amino}phenyl)thiourea] | mediocre; also recorded: reduced slightly
18 | Nc1ccc2cc[nH]c2c1 [6-aminoindole, reference compound] | abrogated the formation of high molecular weight bands
19 | Nc1cccc2[nH]ccc12 [4-aminoindole, reference compound] | abrogated the formation of high molecular weight bands
